Experimental data reported in PubChem BioAssay (NCI).
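1) Cells in 96-well plates. 2) Compound, 48 h, 5 concentrations. 3) Linear interpolation between surrounding doses. 4) Unreached endpoint = highest concentration. GI50 is the concentration that inhibits growth by half. TGI: total growth inhibition.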

Tests used:
Assay in all cases: inhibition of tumour cell growth, NCI panel, 48 h
A498 renal = system: A498 renal
HCT-15 colon = system: HCT-15 colon
SK-MEL-2 melanoma = system: SK-MEL-2 melanoma
SW-620 colon = system: SW-620 colon
TK-10 renal = system: TK-10 renal
UACC-257 melanoma = system: UACC-257 melanoma
UACC-62 melanoma = system: UACC-62 melanoma
PC-3 prostate = system: PC-3 prostate
SF-268 CNS = system: SF-268 CNS
T-47D breast = system: T-47D breast

Row | Compound | TGI (A498 renal) | TGI (HCT-15 colon) | TGI (SK-MEL-2 melanoma) | TGI (SW-620 colon) | TGI (TK-10 renal) | TGI (UACC-257 melanoma) | TGI (UACC-62 melanoma) | GI50 (A498 renal) | GI50 (HCT-15 colon) | GI50 (PC-3 prostate) | TGI (PC-3 prostate) | GI50 (SF-268 CNS) | TGI (SF-268 CNS) | GI50 (SK-MEL-2 melanoma) | GI50 (SW-620 colon) | GI50 (TK-10 renal) | GI50 (UACC-257 melanoma) | GI50 (UACC-62 melanoma) | TGI (T-47D breast)
1 | c1cncc(C2c3[nH]c4ccccc4c3CCN2CCCN2CCCCC2)c1 (configuration not stated) | > 100 µM | > 100 µM | > 100 µM | > 100 µM | > 100 µM | > 100 µM | > 100 µM | – | – | – | – | – | – | – | – | – | – | – | –
2 | CCN1C(=O)N(CC)C2C1NN=c1s/c(=C3\C(=O)N(CCC(C)C)c4ccccc43)c(=O)n12 (configuration not stated) | 2.59 µM | 3.75 µM | 11.4 µM | > 100 µM | 71.7 µM | > 100 µM | 8.04 µM | 0.477 µM | 1.31 µM | 2.91 µM | > 100 µM | 2.8 µM | 20.5 µM | 2.32 µM | 1.08 µM | 9.44 µM | 3.72 µM | 0.607 µM | –
3 | CSc1nc(NC2OCC(OC(C)=O)C(OC(C)=O)C2OC(C)=O)c(N=CC=Nc2c(NC3OCC(OC(C)=O)C(OC(C)=O)C3OC(C)=O)nc(SC)n(C)c2=O)c(=O)n1C (configuration not stated) | > 100 µM | > 100 µM | > 100 µM | > 100 µM | > 100 µM | > 100 µM | > 100 µM | – | – | – | – | – | > 100 µM | – | – | – | – | – | –
4 | CSc1ccc(-c2cn3ccsc3n2)c(O)c1 | > 100 µM | > 55.8 µM | > 100 µM | > 55.1 µM | > 100 µM | > 100 µM | > 100 µM | – | – | – | – | – | > 100 µM | – | – | – | – | – | –
5 | COc1cc2[nH]c(C(=O)c3cc(OC)c(OC)c(OC)c3)c(N)c2cc1C#CCO | 2.14 µM | > 100 µM | > 100 µM | > 100 µM | > 100 µM | – | > 100 µM | 0.23 µM | 0.432 µM | 0.277 µM | > 100 µM | 0.957 µM | 73.4 µM | 0.485 µM | 0.294 µM | 44.1 µM | – | 7.56 µM | –
6 | CN1C(=O)n2c(nc3ccccc32)C(N=[N+]=[N-])(N=[N+]=[N-])C1=O (configuration not stated) | > 100 µM | > 100 µM | > 100 µM | > 100 µM | > 100 µM | > 100 µM | > 100 µM | – | – | – | – | – | > 100 µM | – | – | – | – | – | –
7 | CCOC(=O)/C(=C/c1ccc(OC)c(OC)c1)C(=O)c1ccccc1 | 46.5 µM | 42 µM | > 100 µM | 48.5 µM | 65.4 µM | 33.2 µM | 29.5 µM | – | – | – | – | – | 36.7 µM | – | – | – | – | – | –
8 | CCN1C(C)=NC2C(=O)c3ccccc3C(=O)C21 (configuration not stated) | > 100 µM | > 100 µM | > 100 µM | > 100 µM | > 100 µM | > 100 µM | > 100 µM | – | – | – | – | – | > 100 µM | – | – | – | – | – | –
9 | CC[O-].CC[O-].[O-]c1ccccc1C=Nc1ccccc1.[O-]c1ccccc1C=Nc1ccccc1.[Ti+4] | – | – | – | > 100 µM | > 100 µM | > 100 µM | > 100 µM | – | – | – | – | > 100 µM | > 100 µM | – | 9.24 µM | > 100 µM | > 100 µM | > 100 µM | –
10 | CN1CCC23c4c5ccc(O)c4OC2C(=NN=C2CCC4(O)C6Cc7ccc(O)c8c7C4(CCN6C)C2O8)CCC3(O)C1C5 (configuration not stated) | > 100 µM | > 100 µM | > 100 µM | > 100 µM | > 100 µM | > 100 µM | > 100 µM | – | – | – | – | – | > 100 µM | – | – | – | – | – | –
11 | [N-]=[N+]=NC1(N=[N+]=[N-])C(=O)NN=C(c2ccccc2)C1=O (configuration not stated) | > 100 µM | > 100 µM | – | > 100 µM | > 100 µM | > 100 µM | > 100 µM | – | – | – | > 100 µM | – | 28.4 µM | – | – | – | – | – | 94.3 µM
12 | C/C(CC(=O)CCCC(=O)Nc1ccc(Cl)cc1Cl)=N/NC(=O)CC#N | > 100 µM | > 100 µM | > 100 µM | > 100 µM | > 100 µM | > 100 µM | > 100 µM | – | – | – | – | – | > 100 µM | – | – | – | – | – | –
13 | C[C@]12CCC[C@H](OC=O)C1(O)C[C@H](C(=O)O)CC2 (some centres not stated) | > 100 µM | > 100 µM | > 100 µM | > 100 µM | > 100 µM | > 100 µM | 32.5 µM | – | – | – | – | – | > 100 µM | – | – | – | – | – | –
14 | C=C1C(=O)O[C@@H]2[C@H]1CC[C@H](C)[C@]1(O)CCC(=O)[C@@]21C | – | > 10 µM | > 10 µM | > 10 µM | > 10 µM | – | > 10 µM | – | – | – | > 10 µM | – | > 10 µM | – | – | – | – | – | > 10 µM
15 | COC1=CC(=O)c2ccc(C(C)C)cc2C1(C)C1=NC(C)(C)CO1 (configuration not stated) | – | > 100 µM | > 100 µM | > 100 µM | > 100 µM | > 100 µM | > 100 µM | – | – | – | – | – | > 100 µM | – | – | – | – | – | –
16 | CCC[CH2][Sn]1([CH2]CCC)[O]C(c2ccccn2)S(=O)(=O)[O]1 (configuration not stated) | 32.1 µM | 3.5 µM | 3.22 µM | 3.02 µM | 5.84 µM | 3.29 µM | 3.78 µM | 18.1 µM | 1.79 µM | – | – | – | – | 1.7 µM | 1.56 µM | 2.54 µM | 1.79 µM | 1.84 µM | –
17 | CC(=O)[O-].CC(=O)[O-].[Mn+2].c1ccc(/C(=N\Nc2ccccn2)c2ccccn2)cc1 | 30.6 µM | 16.1 µM | – | 14.5 µM | 54.6 µM | 6.45 µM | 1.13 µM | – | 0.0432 µM | – | 14.5 µM | – | 13.5 µM | – | 0.0535 µM | – | 0.0496 µM | – | 12 µM
18 | CC1(C)CCC(=O)c2c(O)ccc(O)c21 | – | > 100 µM | > 100 µM | > 100 µM | > 100 µM | 81.9 µM | > 100 µM | – | – | – | – | – | > 100 µM | – | – | – | – | – | –
19 | COc1cccc(/C=C(/C(=O)O)c2cc(OC)c(OC)c(OC)c2)c1 | > 100 µM | > 100 µM | – | > 100 µM | > 100 µM | > 100 µM | > 100 µM | – | – | – | – | – | > 100 µM | – | – | – | – | – | –
20 | O=c1c(O)c(-c2ccc(O)c(O)c2)oc2cc(O)ccc12 | 62.3 µM | 98.4 µM | 23.2 µM | 60.1 µM | > 88.8 µM | > 67.7 µM | 39.5 µM | – | – | – | – | – | > 74.1 µM | – | – | – | – | – | –
21 | Cc1cc(N(CCC#N)CCC#N)ccc1/C=C1/CN(N2C(=O)/C(=C/c3ccc(N(CCC#N)CCC#N)cc3C)N=C2c2ccccc2)C(c2ccccc2)=N1 | > 100 µM | > 100 µM | – | > 100 µM | 75.9 µM | > 100 µM | > 100 µM | – | – | – | – | – | > 100 µM | – | – | – | – | – | –
22 | Nn1c(CCCl)nc2c(Br)cc(Br)cc2c1=O | > 56.9 µM | 55.1 µM | > 90.9 µM | > 55 µM | > 100 µM | > 100 µM | > 83.8 µM | – | – | – | – | – | > 100 µM | – | – | – | – | – | –
